Here are results for four compounds from ChEMBL document CHEMBL4043214, “Design, synthesis, and SAR study of 3-(benzo[d][1,3]dioxol-5-yl)-N-benzylpropanamide as novel potent synergists against fluconazole-resistant Candida albicans” (2017).

What all share (assay type): functional
The subject of experiment [1] is Candida albicans. In words: Anti-fungal activity against fluconazole-resistant Candida albicans isolate 100 by microbroth dilution method.
The subject of experiment [2] is Candida albicans. Put plainly: Potentiation of fluconazole-induced anti-fungal activity against fluconazole-resistant Candida albicans isolate 100 at 2 ug/ml by checkerboard microdilution assay. (Broth dilution looks for growth in wells or tubes with falling amounts of substance.)
Experiment [3] concerns Candida albicans. In words: Potentiation of fluconazole-induced anti-fungal activity against fluconazole-resistant Candida albicans isolate 100 assessed as fluconazole MIC80 at 1 ug/ml by checkerboard microdilution assay.
Experiment [4] deals with Candida albicans. In words: Synergistic anti-fungal activity against fluconazole-resistant Candida albicans isolate 100 in presence of fluconazole by two-fold dilution method.
Experiment [5] deals with Candida albicans. Put plainly: Potentiation of fluconazole-induced anti-fungal activity against fluconazole-resistant Candida albicans isolate 100 assessed as fluconazole MIC80 at 2 ug/ml by checkerboard microdilution assay.
Experiment [6] concerns Candida albicans. In words: Potentiation of fluconazole-induced anti-fungal activity against fluconazole-resistant Candida albicans isolate 100 by two-fold dilution method.
The test system of experiment [7] is Candida albicans. Put plainly: Potentiation of fluconazole-induced anti-fungal activity against fluconazole-resistant Candida albicans isolate 100 assessed as fluconazole MIC80 at 8 ug/ml by checkerboard microdilution assay.
Experiment [8] relates to Candida albicans. In words: Potentiation of fluconazole-induced anti-fungal activity against fluconazole-resistant Candida albicans isolate 100 at 1 ug/ml by checkerboard microdilution assay.
For experiment [9], the system named is Candida albicans. Put plainly: Potentiation of fluconazole-induced anti-fungal activity against fluconazole-resistant Candida albicans isolate 103 at 4 ug/ml by checkerboard microdilution assay.
Experiment [10] has as its system Candida albicans. Put plainly: Anti-fungal activity against fluconazole-resistant Candida albicans isolate 103 by microbroth dilution method.
Experiment [11] deals with Candida albicans. In words: Potentiation of fluconazole-induced anti-fungal activity against fluconazole-resistant Candida albicans isolate 103 by two-fold dilution method.
The subject of experiment [12] is Candida albicans. Put plainly: Potentiation of fluconazole-induced anti-fungal activity against fluconazole-resistant Candida albicans isolate 103 assessed as fluconazole MIC80 at 4 ug/ml by checkerboard microdilution assay.
Experiment [13] relates to Candida albicans. Put plainly: Potentiation of fluconazole-induced anti-fungal activity against fluconazole-resistant Candida albicans isolate 103 at 8 ug/ml by checkerboard microdilution assay.
Experiment [14] concerns Candida albicans. Put plainly: Potentiation of fluconazole-induced anti-fungal activity against fluconazole-resistant Candida albicans isolate 103 at 1 ug/ml by checkerboard microdilution assay.
Experiment [15] has as its system Candida albicans. Put plainly: Potentiation of fluconazole-induced anti-fungal activity against fluconazole-resistant Candida albicans isolate 100 assessed as fluconazole MIC80 at 4 ug/ml by checkerboard microdilution assay.
Experiment [16] relates to Candida albicans. In words: Potentiation of fluconazole-induced anti-fungal activity against fluconazole-resistant Candida albicans isolate 103 assessed as fluconazole MIC80 at 1 ug/ml by checkerboard microdilution assay.
The subject of experiment [17] is Candida albicans. Put plainly: Potentiation of fluconazole-induced anti-fungal activity against fluconazole-resistant Candida albicans isolate 100 at 8 ug/ml by checkerboard microdilution assay.
The subject of experiment [18] is Candida albicans. Put plainly: Potentiation of fluconazole-induced anti-fungal activity against fluconazole-resistant Candida albicans isolate 103 assessed as fluconazole MIC80 at 8 ug/ml by checkerboard microdilution assay.
Experiment [19] relates to Candida albicans. In words: Potentiation of fluconazole-induced anti-fungal activity against fluconazole-resistant Candida albicans isolate 100 at 4 ug/ml by checkerboard microdilution assay.
Experiment [20] concerns Candida albicans. Put plainly: Synergistic anti-fungal activity against fluconazole-resistant Candida albicans isolate 103 in presence of fluconazole by two-fold dilution method.
The subject of experiment [21] is Candida albicans. In words: Potentiation of fluconazole-induced anti-fungal activity against fluconazole-resistant Candida albicans isolate 103 at 2 ug/ml by checkerboard microdilution assay.
For experiment [22], the system named is Candida albicans. In words: Potentiation of fluconazole-induced anti-fungal activity against fluconazole-resistant Candida albicans isolate 103 assessed as fluconazole MIC80 at 2 ug/ml by checkerboard microdilution assay.

Turning to `Cc1ccc(-c2ccc(CNC(=O)CCc3ccc4c(c3)OCO4)cc2)cc1`, the MIC80 in experiment [1] was more than 64 µg/mL; in experiment [3] it was 2 µg/mL; in experiment [4], 0.063 µg/mL; in [5], 1 µg/mL; in experiment [7], 0.063 µg/mL; in [10] it was more than 64 µg/mL. Also, the MIC80 was 1 µg/mL in experiment [12]; 0.5 µg/mL in experiment [15]; 2 µg/mL in [16]; 0.063 µg/mL in experiment [18]; 0.063 µg/mL in experiment [20]; 1 µg/mL in experiment [22]. Also, the “fractional inhibitory concentration index (FICI)” value in [2] is 0.023; in experiment [6] it was 0.063; in experiment [8] it was 0.023; in experiment [9] it was 0.039; in experiment [11], 0.063; in experiment [13], 0.063. For the same compound, the “fractional inhibitory concentration index (FICI)” value worked out at 0.023 in [14], 0.063 in experiment [17], 0.035 in experiment [19] and 0.023 in [21].

Regarding `O=C(CCc1ccc2c(c1)OCO2)NCc1ccc(-c2ccccc2F)cc1`, the MIC80 in experiment [1] is more than 64 µg/mL; in [3] it was 0.125 µg/mL; in experiment [4], 0.031 µg/mL; in experiment [5] it was 0.125 µg/mL; in experiment [7], 0.031 µg/mL; in [10] it was more than 64 µg/mL. For the same compound, the MIC80 turned out to be 0.063 µg/mL in experiment [12]; 0.63 µg/mL in [15]; 0.25 µg/mL in [16]; 0.031 µg/mL in [18]; 0.031 µg/mL in experiment [20]; 0.125 µg/mL in [22]. For the same compound, the “fractional inhibitory concentration index (FICI)” value in [2] came out at 0.017; in experiment [6] it was 0.063; in [8], 0.009; in experiment [9] it was 0.032; in experiment [11] it was 0.063; in experiment [13], 0.066. Further, the “fractional inhibitory concentration index (FICI)” value in experiment [14] amounted to 0.01; in experiment [17], 0.066; in [19], 0.032; in experiment [21], 0.017.

Take `O=C(CCc1ccc2c(c1)OCO2)NCc1ccc(-c2ccc(F)cc2)cc1`: the MIC80 in experiment [1] was more than 64 µg/mL; in experiment [3] it was 0.25 µg/mL; in experiment [4], 0.031 µg/mL; in [5], 0.125 µg/mL; in experiment [7], 0.031 µg/mL; in experiment [10], more than 64 µg/mL. In addition, the MIC80 in [12] was 0.125 µg/mL; in experiment [15] it was 0.063 µg/mL; in experiment [16], 0.25 µg/mL; in experiment [18], 0.063 µg/mL; in experiment [20], 0.063 µg/mL; in [22], 0.25 µg/mL. In addition, the “fractional inhibitory concentration index (FICI)” value in experiment [2] was found to be 0.017; in [6], 0.063; in experiment [8], 0.01; in experiment [9], 0.032; in [11], 0.063; in experiment [13] it was 0.064. Further, the “fractional inhibitory concentration index (FICI)” value amounted to 0.01 in experiment [14], 0.064 in experiment [17], 0.032 in experiment [19] and 0.018 in experiment [21].

As for `COc1ccc2cc3[n+](cc2c1OC)CCc1cc2c(cc1-3)OCO2` [BERBERINE], the MIC80 in [1] was found to be 32 µg/mL; in experiment [3], 2 µg/mL; in experiment [4] it was 1 µg/mL; in experiment [5], 1 µg/mL; in [7] it was 1 µg/mL; in [10] it was 32 µg/mL. The MIC80 in experiment [12] was 1 µg/mL; in experiment [15], 1 µg/mL; in [16] it was 2 µg/mL; in experiment [18], 1 µg/mL; in [20], 1 µg/mL; in experiment [22], 1 µg/mL. The “fractional inhibitory concentration index (FICI)” value in [2] is on record as 0.039; in [6], 0.093; in experiment [8], 0.07; in experiment [9], 0.063; in experiment [11], 0.093; in experiment [13], 0.093. The “fractional inhibitory concentration index (FICI)” value in experiment [14] is listed as 0.07; in [17], 0.093; in [19] it was 0.063; in experiment [21], 0.039.

What is called MIC80 is the lowest concentration that inhibits either 80% of growth or 80% of the strains tested, depending on the study.
